Legend:
[1] = 101 kPa, Liquid; for viscosity: Capillary tube (Ostwald / Ubbelohde) method
[2] = xn = mol fraction of the nth substance listed; settings: 101 kPa, Liquid; for viscosity: Capillary tube (Ostwald / Ubbelohde) method

CC(C)Cc1ccccc1 [(2-methylpropyl)benzene]
[1]
Settings | mass density [kg/m3] | speed of sound [m/s] | viscosity [mPa·s]
303.15 K | 844.4 | 1268 | 0.905
308.15 K | 841.1 | 1252 | 0.848
313.15 K | 837.6 | 1236 | 0.784

CC(C)Cc1ccccc1 [(2-methylpropyl)benzene] + CCOC=O
[2]
Settings | mass density, 303.15 K [kg/m3] | mass density, 308.15 K [kg/m3] | mass density, 313.15 K [kg/m3] | speed of sound, 303.15 K [m/s] | speed of sound, 308.15 K [m/s] | speed of sound, 313.15 K [m/s] | viscosity, 303.15 K [mPa·s] | viscosity, 308.15 K [mPa·s] | viscosity, 313.15 K [mPa·s]
x2 = 0 | 844.4 | 841.1 | 837.6 | 1268 | 1252 | 1236 | 0.905 | 0.848 | 0.784
x2 = 0.1772 | 849.5 | 845.8 | 842.1 | 1248 | 1228 | 1208 | 0.788 | 0.726 | 0.666
x2 = 0.3217 | 854.9 | 851 | 847 | 1224 | 1204 | 1184 | 0.699 | 0.641 | 0.591
x2 = 0.4514 | 860.8 | 856.8 | 852.6 | 1200 | 1180 | 1160 | 0.625 | 0.573 | 0.529
x2 = 0.5631 | 866.8 | 862.7 | 858.3 | 1180 | 1160 | 1140 | 0.569 | 0.522 | 0.48
x2 = 0.6604 | 873.3 | 868.8 | 864.3 | 1164 | 1144 | 1124 | 0.52 | 0.479 | 0.442
x2 = 0.7444 | 879.7 | 875 | 870.3 | 1148 | 1128 | 1108 | 0.481 | 0.445 | 0.413
x2 = 0.8191 | 886.3 | 881.5 | 876.6 | 1132 | 1112 | 1092 | 0.45 | 0.415 | 0.384
x2 = 0.8852 | 893.1 | 888 | 883 | 1120 | 1100 | 1080 | 0.418 | 0.388 | 0.362
x2 = 0.9461 | 900.5 | 895.3 | 890 | 1104 | 1084 | 1064 | 0.394 | 0.369 | 0.347

c1ccccc1 [benzene]
[1]
Settings | mass density [kg/m3] | speed of sound [m/s] | viscosity [mPa·s]
303.15 K | 867.6 | 1276 | 0.569
308.15 K | 863.2 | 1252 | 0.534
313.15 K | 858.9 | 1228 | 0.497

c1ccccc1 [benzene] + CCOC=O
[2], x2 = 0
Settings | mass density [kg/m3] | speed of sound [m/s] | viscosity [mPa·s]
303.15 K | 867.6 | 1276 | 0.569
308.15 K | 863.2 | 1252 | 0.534
313.15 K | 858.9 | 1228 | 0.497

CCCCc1ccccc1 [butylbenzene]
[1]
Settings | mass density [kg/m3] | speed of sound [m/s] | viscosity [mPa·s]
303.15 K | 851.3 | 1308 | 0.901
308.15 K | 848 | 1292 | 0.844
313.15 K | 844.6 | 1276 | 0.787

CCCCc1ccccc1 [butylbenzene] + CCOC=O
[2]
Settings | mass density, 303.15 K [kg/m3] | mass density, 308.15 K [kg/m3] | mass density, 313.15 K [kg/m3] | speed of sound, 303.15 K [m/s] | speed of sound, 308.15 K [m/s] | speed of sound, 313.15 K [m/s] | viscosity, 303.15 K [mPa·s] | viscosity, 308.15 K [mPa·s] | viscosity, 313.15 K [mPa·s]
x2 = 0 | 851.3 | 848 | 844.6 | 1308 | 1292 | 1276 | 0.901 | 0.844 | 0.787
x2 = 0.1738 | 855.4 | 851.9 | 848.4 | 1284 | 1264 | 1244 | 0.782 | 0.713 | 0.65
x2 = 0.3241 | 860.3 | 856.6 | 852.9 | 1252 | 1232 | 1212 | 0.692 | 0.627 | 0.571
x2 = 0.4533 | 865.4 | 861.5 | 857.5 | 1220 | 1200 | 1180 | 0.625 | 0.569 | 0.518
x2 = 0.563 | 870.7 | 866.6 | 862.4 | 1196 | 1176 | 1156 | 0.571 | 0.521 | 0.476
x2 = 0.6587 | 876.3 | 872 | 867.6 | 1176 | 1156 | 1136 | 0.525 | 0.48 | 0.44
x2 = 0.744 | 882.2 | 877.6 | 873.1 | 1156 | 1136 | 1116 | 0.482 | 0.443 | 0.407
x2 = 0.8189 | 888.4 | 883.6 | 878.8 | 1140 | 1120 | 1100 | 0.451 | 0.412 | 0.381
x2 = 0.8855 | 894.5 | 889.6 | 884.6 | 1124 | 1104 | 1084 | 0.419 | 0.385 | 0.355
x2 = 0.9459 | 901.2 | 896 | 890.8 | 1108 | 1088 | 1068 | 0.398 | 0.366 | 0.336

— the NIST ThermoML archive (doi:10.1021/je900689m)
